Values quoted from earlier work in PubChem BioAssay AID1259410 (Chemical Carcinogenesis Research Information System (CCRIS), 2018).

System: rodent tumor promotion studies, tumor incidence
Experiment: CCRIS tumor promotion studies

For `CNC(=O)Oc1ccccc1OC(C)C`, the outcome (Carcinogen: 7,12-DIMETHYLBENZ[A]ANTHRACENE, 57-97-6, Doses [Carcinogen]: 52 UG IN 100 µL ACETONE ONCE, Doses [Promoter]: 0, 100 MG/KG BW IN 100 µL ACETONE 3/WK FOR 51 WK BEGINNING 1/WK POST CARCINOGEN DOSE (STUDY DURATION: 52 WK), Route [Carcinogen]: DERMAL, Route [Promoter]: DERMAL, Species: MOUSE, Strain/Sex: SWISS/FEMALE) is given as “skin: tumor” and the outcome (Carcinogen: 7,12-DIMETHYLBENZ[A]ANTHRACENE, 57-97-6, Doses [Carcinogen]: 52 UG IN 100 µL ACETONE ONCE, Doses [Promoter]: 0, 100 MG/KG BW IN 100 µL ACETONE 3/WK FOR 51 WK BEGINNING 1 WK POST CARCINOGEN DOSE (STUDY DURATION: 52 WK), Route [Carcinogen]: DERMAL, Route [Promoter]: DERMAL, Species: MOUSE, Strain/Sex: SWISS/MALE) is given as “skin: tumor”.

In the case of `CCC1(CC)C(=O)N=C(O)NC1=O`, the outcome (Carcinogen: CISPLATIN, 15663-27-1, Doses [Carcinogen]: 5 MG/KG BW GIVEN INTRAPERITONEALLY TO FEMALE RATS ON DAY 18 OF GESTATION, Doses [Promoter]: 0, 500 PPM IN DRINKING WATER BEGINNING AT 4 WK OF AGE AND CONTINUING FOR 75 WK (STUDY DURATION: 79 WK), Route [Carcinogen]: TRANSPLACENTAL, Route [Promoter]: ORAL, Species: RAT, Strain/Sex: F344/MALE) is listed as “kidney: renal cell adenoma”, the outcome (Carcinogen: METHYL(ACETOXYMETHYL)NITROSAMINE, 56856-83-8, Doses [Carcinogen]: 0.05 MMOL/KG IN 5 ML STERILE PHOSPHATE BUFFER ONCE, Doses [Promoter]: 0, 500 PPM IN DRINKING WATER BEGINNING 2 WK POST CARCINOGEN DOSE AND CONTINUING FOR 78 WK (STUDY DURATION: 80 WK), Route [Carcinogen]: INTRAPERITONEAL, Route [Promoter]: ORAL, Species: RAT, Strain/Sex: F344/MALE) is listed as “kidney: tumor” and the outcome (Carcinogen: N-BUTYL-N-(4-HYDROXYBUTYL)NITROSAMINE, 3817-11-6, Doses [Carcinogen]: 0.5% IN DRINKING WATER FOR 4 WK, Doses [Promoter]: 1000 PPM IN DIET BEGINNING 1 D POST CARCINOGEN DOSE FOR DURATION OF STUDY (STUDY DURATION: 36-52 WK), Route [Carcinogen]: ORAL, Route [Promoter]: ORAL, Species: RAT, Strain/Sex: F344/MALE) is listed as “urinary bladder: papilloma or carcinoma”. For the same molecule, the outcome (Carcinogen: N-NITROSODIETHYLAMINE, 55-18-5, Doses [Carcinogen]: 75 MG ONCE, Doses [Promoter]: 0, 500 PPM IN DRINKING WATER BEGINNING 2 WK POST CARCINOGEN DOSE AND CONTINUING FOR DURATION OF STUDY (STUDY DURATION: 5, Route [Carcinogen]: INTRAPERITONEAL, Route [Promoter]: ORAL, Species: RAT, Strain/Sex: F344/MALE) was “liver: hepatocellular adenoma”, the outcome (Carcinogen: N-NITROSODIETHYLAMINE, 55-18-5, Doses [Carcinogen]: 75 MG ONCE, Doses [Promoter]: 0, 500 PPM IN DRINKING WATER BEGINNING 2 WK POST CARCINOGEN DOSE AND CONTINUING FOR DURATION OF STUDY (STUDY DURATION: 7, Route [Carcinogen]: INTRAPERITONEAL, Route [Promoter]: ORAL, Species: RAT, Strain/Sex: F344/MALE) was “liver: hepatocellular carcinoma; kidney: renal tubular adenoma or adenocarcinoma” and the outcome (Carcinogen: N-[4-(5-NITRO-2-FURYL)-2-THIAZOLYL]FORMAMIDE, 24554-26-5, Doses [Carcinogen]: 0.2% IN DIET FOR 6 WK, Doses [Promoter]: 1000 PPM IN DIET BEGINNING 2 WK POST LAST CARCINOGEN DOSE AND CONTINUING FOR DURATION OF STUDY (STUDY DURATION: 52-68 WK, Route [Carcinogen]: ORAL, Route [Promoter]: ORAL, Species: RAT, Strain/Sex: F344/MALE) was “urinary bladder: papilloma or carcinoma”. For the same molecule, the outcome (Carcinogen: NONE (PROMOTION OF SPONTANEOUS TUMORS), Doses [Promoter]: 500 PPM IN DIET FOR 4.5 MONTHS (STUDY DURATION: 4.5 MONTHS), Route [Promoter]: ORAL, Species: RAT, Strain/Sex: EKER (TSC2 MUTANT)/MALE) was “kidney: adenoma or carcinoma”, the outcome (Doses [Carcinogen]: 45 UMOL/KG BW GIVEN INTRAPERITONEALLY TO MOTHERS ON DAYS 16 AND 18 OF GESTATION, Doses [Promoter]: 0, 0.05% IN DRINKING WATER BEGINNING AT 4 WK OF AGE AND CONTINUING FOR 81 WK (STUDY DURATION: 85 WK), Route [Carcinogen]: TRANSPLACENTAL, Route [Promoter]: ORAL, Species: RAT, Strain/Sex: F344/MALE) was “kidney: tumors” and the outcome (Doses [Carcinogen]: 90 UMOL/KG BW GIVEN INTRAPERITONEALLY TO MOTHERS ON DAY 17 OF GESTATION, Doses [Promoter]: 0, 0.05% IN DRINKING WATER BEGINNING AT 4 WK OF AGE AND CONTINUING FOR 81 WK (STUDY DURATION: 85 WK), Route [Carcinogen]: TRANSPLACENTAL, Route [Promoter]: ORAL, Species: RAT, Strain/Sex: F344/MALE) was “kidney: tumors”. For the same molecule, the outcome (Doses [Carcinogen]: 90 UMOL/KG ONCE IN DISTILLED WATER, Doses [Promoter]: 0, 500 PPM IN DRINKING WATER BEGINNING 2 WK POST CARCINOGEN DOSE (STUDY DURATION: 96 WK), Route [Carcinogen]: INTRAPERITONEAL, Route [Promoter]: ORAL, Species: RAT, Strain/Sex: F344/MALE) was “kidney: adenoma or carcinoma”.

For `C[C@]12CC[C@@H]3c4ccc(OS(=O)(=O)O)cc4CC[C@H]3[C@@H]1CCC2=O`, the outcome (Carcinogen: 7,12-Dimethylbenz[a]anthrene, 57-97-6, Doses [Carcinogen]: 5 mg in corn oil, intragastric, once, Doses [Promoter]: 100 ng/ml in drinking water, study duration 20 wk, Route [Carcinogen]: Oral, Route [Promoter]: Oral, Species: Rat, Strain/Sex: Sprague-Dawley/Female (16/group)) is given as “mammary gland: tumor”.

In the case of `O=C(CCNNC(=O)c1ccncc1)NCc1ccccc1`, the outcome (Carcinogen: N-METHYL-N'-NITRO-NITROSOGUANIDINE, Doses [Carcinogen]: 25 UG/ML IN DRINKING WATER FOR 25 WK, Doses [Promoter]: 0, 50 MG/KG IN OLIVE OIL 1/2D FOR 26 WK ADMINISTERED POST CARCINOGEN DOSES (STUDY DURATION: 52 WK), Route [Carcinogen]: ORAL, Route [Promoter]: SUBCUTANEOUS, Species: RAT, Strain/Sex: WISTAR/MALE) is given as “glandular stomach: adenocarcinoma”.

For `[O-][Cl+3]([O-])([O-])O`, the outcome (Carcinogen: N-bis(2-hydroxypropyl)nitrosamine, 53609-64-6, Doses [Carcinogen]: 0.08 and 0.2% in drinking water for 4 wks at 7-10 wks of age, study duration to 39 wk of age, Doses [Promoter]: In utero (0.1% in diet of dams) and then in drinking water of weaned offspring for 2 wk. Dimethylbenz[a]anthracene, 57-9, Route [Carcinogen]: Oral, Route [Promoter]: In utero and in drinking water, Species: Rat, Strain/Sex: F344/Female (23, 16/group)) is listed as “thyroid: no increase in tumors even though increased follicular cell hyperplasia” and the outcome (Carcinogen: N-bis(2-hydroxypropyl)nitrosamine, 53609-64-6, Doses [Carcinogen]: 0.08 and 0.2% in drinking water for 4 wks at 7-10 wks of age, study duration to 39 wk of age, Doses [Promoter]: In utero (0.1% in diet of dams) and then in drinking water of weaned offspring for 2 wk, Route [Carcinogen]: Oral, Route [Promoter]: In utero and in drinking water, Species: Rat, Strain/Sex: F344/Male (12-15/group)) is listed as “none found”.

In the case of `C[S-].C[S-].N#[O+].N#[O+].N#[O+].N#[O+].[Fe].[Fe]`, the outcome (Carcinogen: 7,12-DIMETHYLBENZ[A]ANTHRACENE, 57-97-6, Doses [Carcinogen]: 100 NMOL IN 0.2 ML ACETONE ONCE, Doses [Promoter]: 300 NMOL 2/WK FOR 37 WK (STUDY DURATION: 37 WK), Route [Carcinogen]: DERMAL, Route [Promoter]: DERMAL, Species: MOUSE, Strain/Sex: BALB/FEMALE) is listed as “skin: papilloma or carcinoma”, the outcome (Carcinogen: 7,12-DIMETHYLBENZ[A]ANTHRACENE, 57-97-6, Doses [Carcinogen]: 100 NMOL IN 0.2 ML ACETONE ONCE, Doses [Promoter]: 450 NMOL 2/WK FOR 37 WK (STUDY DURATION: 37 WK), Route [Carcinogen]: DERMAL, Route [Promoter]: DERMAL, Species: MOUSE, Strain/Sex: BALB/FEMALE) is listed as “skin: papilloma or carcinoma” and the outcome (Carcinogen: DIETHYLNITROSAMINE, 55-18-5, Doses [Carcinogen]: 25 MG/WK FOR 2 WK, Doses [Promoter]: 6 MG 2/WK FOR 114-669 D BEGINNING 2 WK POST LAST CARCINOGEN DOSE (STUDY DURATION: 669 D), Route [Carcinogen]: GAVAGE, Route [Promoter]: GAVAGE, Species: RAT, Strain/Sex: WISTAR) is listed as “forestomach: papilloma”.

For `OO`, the outcome (Carcinogen: N-METHYL-N'-NITRO-N-NITROSOGUANIDINE, 70-25-7, Doses [Carcinogen]: 25 PPM IN WATER FOR 30 MIN, Doses [Promoter]: 0, 600, 3000 PPM IN DIETS CONTAINING HIGH (1000 PPM) LEVELS OF VITAMIN E FOR 8 MO (STUDY DURATION: 10 MO), Doses [Promoter]: 0, 600, 3000 PPM IN DIETS CONTAINING HIGH (1000 PPM) LEVELS OF VITAMIN E FOR 8 MO (STUDY DURATION: 10 MO), Route [Carcinogen]: IMMERSION, Route [Promoter]: ORAL, Species: FISH, Strain/Sex: RAINBOW TROUT/MALE, FEMALE) is given as “liver: tumor” and the outcome (Carcinogen: N-METHYL-N'-NITRO-N-NITROSOGUANIDINE, 70-25-7, Doses [Carcinogen]: 25 PPM IN WATER FOR 30 MIN, Doses [Promoter]: 0, 600 PPM IN DIETS CONTAINING LOW (20 PPM) LEVELS OF VITAMIN E FOR 8 MO (STUDY DURATION: 10 MO), Route [Carcinogen]: IMMERSION, Route [Promoter]: ORAL, Species: FISH, Strain/Sex: RAINBOW TROUT/MALE, FEMALE) is given as “liver: tumor”.

For `CC(C)C[C@H](NC(=O)[C@H](Cc1ccccc1)NC(=O)CNC(=O)CNC(=O)[C@@H](N)Cc1ccc(O)cc1)C(=O)O`, the outcome (Carcinogen: N-METHYL-N'-NITRO-N-NITROSOGUANIDINE, 70-25-7, Doses [Carcinogen]: 25 UG/ML IN DRINKING WATER FOR 25 WK, Doses [Promoter]: 0, 20 UG/KG 1/2 D BEGINNING POST CARCINOGEN TREATMENT AND CONTINUING FOR THE DURATION OF STUDY (STUDY DURATION: 52 WK), Route [Carcinogen]: ORAL, Route [Promoter]: SUBCUTANEOUS, Species: RAT, Strain/Sex: WISTAR/MALE) is given as “stomach: adenocarcinoma”.
